Measurements as given in ChEMBL document CHEMBL1156496 (J Biol Chem, 2007).

Key:
[1] = Inhibition of complement component C3c
[2] = Binding affinity to complement component C3c in human plasma; format: cell-free

SMILES: CC[C@H](C)[C@H](N)C(=O)N[C@H]1CSSC[C@@H](C(=O)N[C@H](C(N)=O)[C@@H](C)O)NC(=O)[C@H](CCCNC(=N)N)NC(=O)[C@H](Cc2cnc[nH]2)NC(=O)[C@H](Cc2cnc[nH]2)NC(=O)CNC(=O)[C@H](Cc2c[nH]c3ccccc23)NC(=O)[C@H](CC(=O)O)NC(=O)[C@H](CCC(N)=O)NC(=O)[C@H](C(C)C)NC(=O)[C@H](C(C)C)NC1=O [COMPSTATIN]
- IC50 [1]: 12 µM
- Kd [2]: 0.39 µM
